Tests used:
[1] = target: T1, StnC (strep-tagged) (Sporomusa ovata, UniProt A0A0U1KYI6); test: spectrophotometric FMN reduction, […] nm; type: biochemical; settings: electron acceptor, 0.2 mM FMN, 0.25 mM NADPH; 100 mM Tris/HCl pH 7.5, 20 °C
T1 construct: gene SpAn4DRAFT_2937; isolated subunit, N-terminal Strep-tag kept, E. coli BL21 (DE3) delta-iscR; translated from primers: N-term MWSHPQFEKSA-SKISININGR, C-term NFVNGRQSL
T1 sequence (A0A0U1KYI6 2-1172): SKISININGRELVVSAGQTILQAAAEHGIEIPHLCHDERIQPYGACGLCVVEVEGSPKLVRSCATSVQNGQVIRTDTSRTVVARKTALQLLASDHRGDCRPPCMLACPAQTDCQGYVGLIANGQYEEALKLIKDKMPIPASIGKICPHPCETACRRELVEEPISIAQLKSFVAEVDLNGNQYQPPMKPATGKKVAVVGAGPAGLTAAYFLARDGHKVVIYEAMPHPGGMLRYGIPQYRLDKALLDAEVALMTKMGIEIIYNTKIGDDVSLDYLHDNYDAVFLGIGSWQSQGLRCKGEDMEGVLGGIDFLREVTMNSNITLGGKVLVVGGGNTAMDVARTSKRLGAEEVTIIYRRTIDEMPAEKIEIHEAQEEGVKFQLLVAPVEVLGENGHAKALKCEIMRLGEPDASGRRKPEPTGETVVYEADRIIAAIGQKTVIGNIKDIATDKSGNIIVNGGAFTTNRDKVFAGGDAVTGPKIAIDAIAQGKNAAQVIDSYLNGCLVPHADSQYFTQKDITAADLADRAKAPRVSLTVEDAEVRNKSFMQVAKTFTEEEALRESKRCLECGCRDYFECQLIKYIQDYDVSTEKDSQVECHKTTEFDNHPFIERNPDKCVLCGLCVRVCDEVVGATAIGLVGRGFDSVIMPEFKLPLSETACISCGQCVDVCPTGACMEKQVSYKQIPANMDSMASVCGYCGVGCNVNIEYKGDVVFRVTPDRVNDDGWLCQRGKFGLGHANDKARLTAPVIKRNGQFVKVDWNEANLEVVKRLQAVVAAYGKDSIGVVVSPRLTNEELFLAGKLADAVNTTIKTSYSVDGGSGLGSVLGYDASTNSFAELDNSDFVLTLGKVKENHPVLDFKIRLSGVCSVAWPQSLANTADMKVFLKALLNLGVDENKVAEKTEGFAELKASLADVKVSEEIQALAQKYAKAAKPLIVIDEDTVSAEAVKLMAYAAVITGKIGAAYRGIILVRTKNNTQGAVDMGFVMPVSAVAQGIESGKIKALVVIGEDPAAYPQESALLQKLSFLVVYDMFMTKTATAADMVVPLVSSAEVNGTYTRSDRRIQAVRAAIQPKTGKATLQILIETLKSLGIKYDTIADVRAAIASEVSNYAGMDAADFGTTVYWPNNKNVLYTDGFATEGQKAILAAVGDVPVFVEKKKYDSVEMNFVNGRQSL

[2] = target: T1, StnC (strep-tagged); test: thin layer chromatography of bound flavin; type: binding; settings: bound flavin of recombinant StnC
[3] = target: T2, Stn complex (Sporomusa type Nfn; StnABC) (Sporomusa ovata, UniProt A0A0U1KYI6+A0A0U1KYM9); test: protein precipitation and thin layer chromatography of released flavin; type: binding; settings: bound flavin, loosely bound; FAD and FMN present in purification buffers
T2 construct: gene SpAn4DRAFT_2936; native purification from S. ovata cytoplasm, untagged; ~840 kDa tetrameric heterotrimer; identified by MALDI-TOF-MS; with Sporomusa type Nfn subunit A (NuoE-like, HydC/HndA-like [2Fe-2S] subunit)
T2 sequence (A0A0U1KYM9 1-584): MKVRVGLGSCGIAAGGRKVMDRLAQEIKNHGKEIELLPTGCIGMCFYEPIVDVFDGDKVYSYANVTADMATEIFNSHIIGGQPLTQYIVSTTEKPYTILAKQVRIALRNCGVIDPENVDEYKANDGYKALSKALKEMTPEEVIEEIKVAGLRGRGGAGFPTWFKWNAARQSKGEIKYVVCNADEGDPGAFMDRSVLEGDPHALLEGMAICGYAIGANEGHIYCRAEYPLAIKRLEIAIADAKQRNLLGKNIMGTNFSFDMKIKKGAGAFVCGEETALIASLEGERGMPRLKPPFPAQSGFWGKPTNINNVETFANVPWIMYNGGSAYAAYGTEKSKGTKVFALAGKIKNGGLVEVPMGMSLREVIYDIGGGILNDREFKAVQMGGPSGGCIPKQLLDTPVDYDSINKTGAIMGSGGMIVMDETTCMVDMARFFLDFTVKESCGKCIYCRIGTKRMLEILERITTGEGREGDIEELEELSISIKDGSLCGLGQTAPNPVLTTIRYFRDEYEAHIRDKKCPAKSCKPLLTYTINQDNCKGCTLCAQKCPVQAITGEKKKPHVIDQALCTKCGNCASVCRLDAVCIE
T2 sequence (A0A0U1KYI6 1-1172): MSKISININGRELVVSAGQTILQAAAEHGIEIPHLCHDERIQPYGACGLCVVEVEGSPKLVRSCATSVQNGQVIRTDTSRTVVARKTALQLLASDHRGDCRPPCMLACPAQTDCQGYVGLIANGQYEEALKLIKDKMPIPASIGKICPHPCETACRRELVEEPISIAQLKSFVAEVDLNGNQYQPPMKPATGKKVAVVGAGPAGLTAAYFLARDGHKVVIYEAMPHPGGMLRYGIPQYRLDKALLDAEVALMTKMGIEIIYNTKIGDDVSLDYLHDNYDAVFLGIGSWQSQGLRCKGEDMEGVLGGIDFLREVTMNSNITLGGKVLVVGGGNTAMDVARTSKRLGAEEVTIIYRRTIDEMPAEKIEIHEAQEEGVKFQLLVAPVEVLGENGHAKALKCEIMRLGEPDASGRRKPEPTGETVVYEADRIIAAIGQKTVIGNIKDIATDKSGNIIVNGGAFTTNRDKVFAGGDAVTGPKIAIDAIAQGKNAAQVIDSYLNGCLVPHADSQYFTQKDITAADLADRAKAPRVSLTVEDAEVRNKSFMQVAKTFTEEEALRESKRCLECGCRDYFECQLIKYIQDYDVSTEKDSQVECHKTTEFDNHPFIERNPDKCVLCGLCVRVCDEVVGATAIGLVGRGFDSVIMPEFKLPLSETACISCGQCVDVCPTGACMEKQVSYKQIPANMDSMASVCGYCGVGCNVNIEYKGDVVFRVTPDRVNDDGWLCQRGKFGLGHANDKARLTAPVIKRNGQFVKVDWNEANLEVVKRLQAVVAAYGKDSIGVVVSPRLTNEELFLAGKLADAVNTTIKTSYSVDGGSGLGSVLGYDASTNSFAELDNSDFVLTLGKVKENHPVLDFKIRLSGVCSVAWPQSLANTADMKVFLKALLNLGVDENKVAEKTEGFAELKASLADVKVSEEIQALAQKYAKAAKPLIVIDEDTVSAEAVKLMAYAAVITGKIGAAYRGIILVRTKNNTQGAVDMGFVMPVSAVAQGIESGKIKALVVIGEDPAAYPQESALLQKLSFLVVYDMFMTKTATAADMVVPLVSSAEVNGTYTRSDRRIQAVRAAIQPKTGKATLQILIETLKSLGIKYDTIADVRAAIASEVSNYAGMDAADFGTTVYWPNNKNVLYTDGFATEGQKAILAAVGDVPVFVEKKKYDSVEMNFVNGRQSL
T2 sequence (A0A0U1KYW8 1-178 partner): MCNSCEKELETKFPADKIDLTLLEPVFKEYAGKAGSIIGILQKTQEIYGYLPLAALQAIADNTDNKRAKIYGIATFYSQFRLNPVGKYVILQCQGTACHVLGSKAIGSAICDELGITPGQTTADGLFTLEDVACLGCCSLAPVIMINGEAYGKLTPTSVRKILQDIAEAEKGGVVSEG

[4] = target: T1, StnC (strep-tagged); test: spectrophotometric NADPH-dependent acceptor reduction; type: biochemical; settings: acceptors methyl viologen, FAD, FMN or ferricyanide; 100 mM Tris/HCl pH 7.5, 20 °C
[5] = target: Sporomusa type Nfn (Stn) complex, heterotrimer of StnA, StnB and StnC (Sporomusa ovata); test: SEC; analytical gel filtration of the purified Stn complex on Superdex 200; heterotrimer to tetramer of heterotrimers

## Cc1cc2nc3c(=O)[nH]c(=O)nc-3n(C[C@H](O)[C@H](O)[C@H](O)COP(=O)(O)O)c2cc1C [FMN]
[1]
  spectrophotometric FMN reduction, 450 nm: The purified protein exhibited NADPH oxidation with methyl viologen, FAD, FMN and ferricyanide

## Cc1cc2nc3c(=O)[nH]c(=O)nc-3n(C[C@H](O)[C@H](O)[C@H](O)COP(=O)(O)OP(=O)(O)OC[C@H]3O[C@@H](n4cnc5c(N)ncnc54)[C@H](O)[C@@H]3O)c2cc1C [FAD]
[2]
  thin layer chromatography of bound flavin: The identity of bound Flavin was elucidated by TLC to be FAD.
[3]
  protein precipitation and thin layer chromatography of released flavin: FAD was identified to be the only flavin bound

## NC(=O)C1=CN([C@@H]2O[C@H](COP(=O)(O)OP(=O)(O)OC[C@H]3O[C@@H](n4cnc5c(N)ncnc54)[C@H](OP(=O)(O)O)[C@@H]3O)[C@@H](O)[C@H]2O)C=CC1 [NADPH]
[4]
  spectrophotometric NADPH-dependent acceptor reduction: The purified protein exhibited NADPH oxidation with methyl viologen, FAD, FMN and ferricyanide

## Sporomusa type Nfn (Stn) complex, heterotrimer of StnA, StnB and StnC
[5]
  stoichiometry N: 4

Reference: publication PMC7483475, “The Sporomusa type Nfn is a novel type of electron-bifurcating transhydrogenase that links the redox pools in acetogenic bacteria” (Scientific Reports, 2020)
